Measurements taken from patent US20250179047A1, “5-[7-(3,4-DIHYDRO-1H-ISOQUINOLINE-2-CARBONYL)-1,2,3,4 TETRAHYDROISOQUINOLIN-6-YL]-1H-PYRROLE-3-CARBOXAMIDE DERIVATIVES, PHARMACEUTICAL COMPOSITIONS CONTAINING THEM AND THEIR USES AS PRO-APOPTOTIC AGENTS” (LES LABORATOIRES SERVIER, priority 2022, published 2025).

What was measured:
KMS12PE = experiment: In vitro cytotoxicity CellTiterGlo 72 h, KMS12PE; type: cell-based; details: Homo sapiens, KMS-12-PE, read-out: C50 nM, KMS12PE
Description: (§1) KMS-12-PE (ACC 606) were purchased from the Leibniz-Institute DSMZ (Braunschweig, Germany) and were grown at 37° C. in a humidified atmosphere with 5% CO2 in media recommended by the suppliers. Lentiviral particles containing Bcl-2 wild type (also named “Bcl2 WT”), Bcl-2 mutated on G101V (also named “Bcl2 G101V”), Bcl-2 mutated on D103Y (also named “Bcl2 D103Y”), Bcl-2 mutated on D103V (also named “Bcl2 D103V”), Bcl-2 mutated on D103E (also named “Bcl2 D103E”), Bcl-2 mutated on F104I (also named “Bcl2 F104I”), Bcl-2 mutated on F104L (also named “Bcl2 F104L”), Bcl-2 mutated on D111A (also named “Bcl2 D111A”), Bcl-2 mutated on A113G (also named “Bcl2 A113G”), Bcl-2 mutated on R129L (also named “Bcl2 R129L”), Bcl-2 mutated on V156D (also named “Bcl2 V156D”) were cloned into pcLV-CMV-DEST-IRES-TagRFP. Lentiviral particles (1×10^6) were mixed with Polybrene at 8 μg/ml and transduced by spinoculation for 1 h at 32° C. and incubated overnight. After 8 days, TagRFP positive-cells were sorted by FACS. BCL2 expression was monitored by immunoblotting using anti-Flag and anti-BCL2 antibodies. Cells were seeded into 96-wells plates and treated with 1:3.16 serial dilution of compounds (9 different concentrations). Cell viability was assessed using CellTiterGlo reagent following treatment for 72 h. Results were normalized to the viability of cells without compounds (control wells). The C50 values were calculated using nonlinear regression algorithms in XCell software.

KMS12PE Bcl2 WT = experiment: In vitro cytotoxicity CellTiterGlo 72 h, KMS12PE Bcl2 WT; type: cell-based; details: Homo sapiens, KMS-12-PE, read-out: C50 nM, KMS12PE Bcl2 WT
Description: as §1

KMS12PE Bcl2 G101V = experiment: In vitro cytotoxicity CellTiterGlo 72 h, KMS12PE Bcl2 G101V; type: cell-based; details: Homo sapiens, KMS-12-PE, read-out: C50 nM, KMS12PE Bcl2 G101V
Description: as §1

KMS12PE Bcl2 D103Y = experiment: In vitro cytotoxicity CellTiterGlo 72 h, KMS12PE Bcl2 D103Y; type: cell-based; details: Homo sapiens, KMS-12-PE, read-out: C50 nM, KMS12PE Bcl2 D103Y
Description: as §1

KMS12PE Bcl2 F104I = experiment: In vitro cytotoxicity CellTiterGlo 72 h, KMS12PE Bcl2 F104I; type: cell-based; details: Homo sapiens, KMS-12-PE, read-out: C50 nM, KMS12PE Bcl2 F104I
Description: as §1

KMS12PE Bcl2 D111A = experiment: In vitro cytotoxicity CellTiterGlo 72 h, KMS12PE Bcl2 D111A; type: cell-based; details: Homo sapiens, KMS-12-PE, read-out: C50 nM, KMS12PE Bcl2 D111A
Description: as §1

KMS12PE Bcl2 D103E = experiment: In vitro cytotoxicity CellTiterGlo 72 h, KMS12PE Bcl2 D103E; type: cell-based; details: Homo sapiens, KMS-12-PE, read-out: C50 nM, KMS12PE Bcl2 D103E
Description: as §1

KMS12PE Bcl2 A113G = experiment: In vitro cytotoxicity CellTiterGlo 72 h, KMS12PE Bcl2 A113G; type: cell-based; details: Homo sapiens, KMS-12-PE, read-out: C50 nM, KMS12PE Bcl2 A113G
Description: as §1

KMS12PE Bcl2 R129L = experiment: In vitro cytotoxicity CellTiterGlo 72 h, KMS12PE Bcl2 R129L; type: cell-based; details: Homo sapiens, KMS-12-PE, read-out: C50 nM, KMS12PE Bcl2 R129L
Description: as §1

KMS12PE Bcl2 V156D = experiment: In vitro cytotoxicity CellTiterGlo 72 h, KMS12PE Bcl2 V156D; type: cell-based; details: Homo sapiens, KMS-12-PE, read-out: C50 nM, KMS12PE Bcl2 V156D
Description: as §1

KMS12PE Bcl2 D103V = experiment: In vitro cytotoxicity CellTiterGlo 72 h, KMS12PE Bcl2 D103V; type: cell-based; details: Homo sapiens, KMS-12-PE, read-out: C50 nM, KMS12PE Bcl2 D103V
Description: as §1

KMS12PE Bcl2 F104L = experiment: In vitro cytotoxicity CellTiterGlo 72 h, KMS12PE Bcl2 F104L; type: cell-based; details: Homo sapiens, KMS-12-PE, read-out: C50 nM, KMS12PE Bcl2 F104L
Description: as §1

BCL2 WT = BCL2 WT (Homo sapiens (Human), UniProt P10415); experiment: TR-FRET competitive binding assay, BCL2 WT; details: Ki determined from IC50, read-out: TR_FRET EKI_Bcl2 WT
Procedure, shortened: (§2)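 Competitive TR-FRET displacement of fluorescein-PUMA peptide (2 or 20 nM) from 0.5 nM terbium-labelled N-terminal Halo-fusion BCL2 (1-207, wild type or mutant) or BCLXL (2-196), expressed in E. coli. Buffer 50 mM Hepes pH 7.5, 150 mM NaCl, 5% DMSO; 2 h at 23°C. 520/495 nm ratio fitted over 11 points for IC50, converted to Ki.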

BCL2 G101V [1] = target: BCL2 G101V (Homo sapiens, UniProt P10415, G101V); experiment: TR-FRET competitive binding assay, BCL2 G101V; details: BCL2 G101V; Ki determined from IC50; read-out: TR_FRET EKI_Bcl2 G101V
Procedure, shortened: as §2

BCL2 G101V [2] = experiment: TR-FRET competitive binding assay, BCL2 G101V; design: species or system human; details: ratio Ki BCL2 G101V / Ki BCL2 WT
Procedure, shortened: as §2

BCL2 D103Y = BCL2 D103Y (Homo sapiens, UniProt P10415, D103Y); experiment: TR-FRET competitive binding assay, BCL2 D103Y; details: Ki determined from IC50, read-out: TR_FRET EKI_Bcl2 D103Y
Procedure, shortened: as §2

BCLXL WT = BCLXL WT (Homo sapiens (Human), UniProt Q07817); experiment: TR-FRET competitive binding assay, BCLXL WT; details: for Ki: BCLXL WT, Ki determined from IC50, read-out: TR_FRET EKI BclxL; for TR_FRET EKI BCLxL/WT selectivty ratio: ratio Ki BCLxL / Ki BCL2 WT
BCLXL WT, sequence (Q07817 other isoform, or with tags, fused parts or gaps): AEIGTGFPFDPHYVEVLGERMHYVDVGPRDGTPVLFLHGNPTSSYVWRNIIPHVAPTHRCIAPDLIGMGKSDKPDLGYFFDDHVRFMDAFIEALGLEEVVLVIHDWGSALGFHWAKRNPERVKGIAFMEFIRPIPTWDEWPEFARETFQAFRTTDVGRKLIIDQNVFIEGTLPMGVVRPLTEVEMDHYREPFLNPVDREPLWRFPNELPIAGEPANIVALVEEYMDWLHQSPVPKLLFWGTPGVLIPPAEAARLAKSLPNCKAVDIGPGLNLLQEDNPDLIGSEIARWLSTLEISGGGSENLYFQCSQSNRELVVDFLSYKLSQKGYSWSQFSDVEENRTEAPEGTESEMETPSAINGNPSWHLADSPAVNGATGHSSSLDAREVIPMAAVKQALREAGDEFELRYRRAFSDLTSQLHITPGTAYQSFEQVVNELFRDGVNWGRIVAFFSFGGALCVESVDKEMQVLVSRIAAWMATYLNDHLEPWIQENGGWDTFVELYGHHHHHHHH
Procedure, shortened: as §2

KMS-12-PE Bcl-2 WT = experiment: In vitro cytotoxicity CellTiter-Glo 48 h, KMS-12-PE Bcl-2 WT; type: cell-based; details: Homo sapiens, KMS-12-PE, C50 = concentration needed to reach 50% of the cellular viability
Procedure, shortened: (§3)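 CTG luminescence read-out; C50 = concentration reaching 50% cellular viability. Cells: KMS-12-PE expressing Bcl-2 WT or G101V (lentiviral, TagRFP-sorted). 11-pt curve, 48 h, 37 °C/5% CO2.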

KMS-12-PE Bcl-2 G101V = experiment: In vitro cytotoxicity CellTiter-Glo 48 h, KMS-12-PE Bcl-2 G101V; type: cell-based; details: for Ratio (G101V/WT): C50 KMS-12-PE Bcl-2 G101V over C50 KMS-12-PE Bcl-2 WT; for IC50: Homo sapiens, KMS-12-PE, 48 h, CellTiter-Glo, C50 = concentration needed to reach 50% of the cellular viability
Procedure, shortened: as §3

CYP3A4 = CYP3A4 (Homo sapiens (Human), UniProt P08684); experiment: CYP3A4 inhibition determination in hepatic human microsomes; type: in vitro ADME; details: LC/MS-MS of specific metabolite
CYP3A4, sequence (P08684 whole entry): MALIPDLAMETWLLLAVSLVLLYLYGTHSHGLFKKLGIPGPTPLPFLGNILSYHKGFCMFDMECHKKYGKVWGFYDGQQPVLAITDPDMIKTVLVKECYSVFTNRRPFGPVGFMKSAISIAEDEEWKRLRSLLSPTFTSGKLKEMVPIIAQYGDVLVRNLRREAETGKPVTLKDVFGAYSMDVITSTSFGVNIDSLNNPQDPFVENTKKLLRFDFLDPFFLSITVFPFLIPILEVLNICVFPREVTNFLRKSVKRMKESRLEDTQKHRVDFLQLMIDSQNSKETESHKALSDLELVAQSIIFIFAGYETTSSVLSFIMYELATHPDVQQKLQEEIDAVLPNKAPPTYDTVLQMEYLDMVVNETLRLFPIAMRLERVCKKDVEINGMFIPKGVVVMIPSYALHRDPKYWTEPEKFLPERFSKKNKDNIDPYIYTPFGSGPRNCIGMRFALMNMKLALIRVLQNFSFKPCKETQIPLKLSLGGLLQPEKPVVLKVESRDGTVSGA
Description: The inhibitory potential was determined on CYP3 Å4 enzyme using hepatic human microsomes. A range of concentrations (adapted based on the solubility) of the tested compound were incubated in presence of a substrate having a specific metabolite of CYP3 Å4 enzyme.
Then, the formation of the metabolite was quantified using LC/MS-MS analysis and a curve corresponding to the concentration of the metabolite in function of the concentration of the test compound allowed to the calculation of the IC50 value.

BCL2 F104I = BCL2 F104I (Homo sapiens, UniProt P10415, F104I); experiment: TR-FRET competitive binding assay, BCL2 F104I; details: Ki determined from IC50, read-out: TR_FRET EKI_Bcl2 F104I
Procedure, shortened: as §2

BCL2 D111A = BCL2 D111A (Homo sapiens, UniProt P10415, D111A); experiment: TR-FRET competitive binding assay, BCL2 D111A; details: Ki determined from IC50, read-out: TR_FRET EKI_Bcl2 D111A
Procedure, shortened: as §2

| SMILES | Ki (BCL2 WT) [nM] | Ki (BCL2 G101V [1]) [nM] | TR_FRET EKI G101V/WT selectivty ratio (BCL2 G101V [2]) | Ki (BCL2 D103Y) [nM] | Ki (BCLXL WT) [nM] | TR_FRET EKI BCLxL/WT selectivty ratio (BCLXL WT) | IC50 (KMS-12-PE Bcl-2 WT) [µM] | Ratio (G101V/WT) (KMS-12-PE Bcl-2 G101V) | IC50 (KMS-12-PE Bcl-2 G101V) [µM] | IC50 (CYP3A4) [nM] | Ki (BCL2 F104I) [nM] | Ki (BCL2 D111A) [nM] | other results |
| --- | --- | --- | --- | --- | --- | --- | --- | --- | --- | --- | --- | --- | --- |
| CC1(C)CCC(CN2CCN(c3ccc(C(=O)NS(=O)(=O)c4ccc(NCC5CCOCC5)c([N+](=O)[O-])c4)c(Oc4cnc5[nH]ccc5c4)c3)CC2)=C(c2ccc(Cl)cc2)C1 [ABT199, Venetoclax, reference compound] | – | – | – | – | – | – | – | – | – | – | – | – | IC50 (KMS12PE): 5.5 nM; IC50 (KMS12PE Bcl2 WT): 30.2 nM; IC50 (KMS12PE Bcl2 G101V): 1050 nM; IC50 (KMS12PE Bcl2 D103Y): 1140 nM; IC50 (KMS12PE Bcl2 F104I): 1300 nM; IC50 (KMS12PE Bcl2 D111A): 22.4 nM; IC50 (KMS12PE Bcl2 D103E): 260 nM; IC50 (KMS12PE Bcl2 A113G): 120 nM; IC50 (KMS12PE Bcl2 R129L): 42.6 nM; IC50 (KMS12PE Bcl2 V156D): 139 nM; IC50 (KMS12PE Bcl2 D103V): 590 nM; IC50 (KMS12PE Bcl2 F104L): 1420 nM |
| Cc1c(N(C(=O)c2cc(-c3cc4c(cc3C(=O)N3Cc5ccccc5C[C@H]3C)CN(C(=O)c3ccccc3)CC4)n(C)c2C)c2ccc(O)cc2)cc(C#N)n1C [Example 25, 5-{2-benzoyl-7-[(3R)-3-methyl-1,2,3,4-tetrahydroisoquinoline-2-carbonyl]-1,2,3,4-tetrahydroisoquinolin-6-yl}-N-(5-cyano-1,2-dimethyl-1H-pyrrol-3-yl)-N-(4-hydroxyphenyl)-1,2-dimethyl-1H-pyrrole-3-carboxamide] | 0.17 | 1.3 | 7.6 | 0.48 | 3.2 | 18.8 | 0.0063 | 12.4 | 0.0778 | 12000 | – | – | – |
| Cc1c(N(C(=O)c2cc(-c3cc4c(cc3C(=O)N3Cc5ccccc5C[C@H]3CN(C)C(C)C)CN(C(=O)Cc3ccc(OCCN5CCOCC5)cc3F)CC4)n(C)c2C)c2ccc(O)cc2)cc(C#N)n1C [Example 91, N-(5-cyano-1,2-dimethyl-1H-pyrrol-3-yl)-5-[2-(2-{2-fluoro-4-[2-(morpholin-4-yl)ethoxy]phenyl}acetyl)-7-[(3S)-3-{[methyl(propan-2-yl)amino]methyl}-1,2,3,4-tetrahydroisoquinoline-2-carbonyl]-1,2,3,4-tetrahydroisoquinolin-6-yl]-N-(4-hydroxyphenyl)-1,2-dimethyl-1H-pyrrole-3-carboxamide] | 0.04 | 0.3 | 6.8 | 0.17 | 2.4 | 60.0 | 0.0084 | 5.96 | 0.0498 | 18000 | 0.25 | 0.08 | – |
| Cc1c(N(C(=O)c2cc(-c3cc4c(cc3C(=O)N3Cc5ccccc5C[C@H]3CN3CCCCC3)CN(C(=O)Cc3ccc(OCCN5CCOCC5)cc3)CC4)n(C)c2C)c2ccc(O)cc2)cc(C#N)n1C [Example 67, N-(5-cyano-1,2-dimethylpyrrol-3-yl)-N-(4-hydroxyphenyl)-1,2-dimethyl-5-[2-(2-{4-[2-(morpholin-4-yl)ethoxy]phenyl}acetyl)-7-{[(3S)-3-(piperidin-1-ylmethyl)-3,4-dihydro-1H-isoquinolin-2-yl]carbonyl}-3,4-dihydro-1H-isoquinolin-6-yl]pyrrole-3-carboxamide] | 0.04 | 0.2 | 6.3 | 0.16 | 2.6 | 68.4 | 0.0113 | 5.2 | 0.0562 | > 5000 | 0.23 | 0.09 | – |
| Cc1c(N(C(=O)c2cc(-c3cc4c(cc3C(=O)N3Cc5ccccc5C[C@H]3CN3CCCC3)CN(C(=O)Cc3ccc(OCCN(C)C5CC5)cc3F)CC4)n(C)c2C)c2ccc(O)cc2)cc(C#N)n1C [Example 101, N-(5-cyano-1,2-dimethylpyrrol-3-yl)-5-{2-[2-(4-{2-[cyclopropyl(methyl)amino]ethoxy}-2-fluorophenyl)acetyl]-7-{[(3S)-3-(pyrrolidin-1-ylmethyl)-3,4-dihydro-1H-isoquinolin-2-yl]carbonyl}-3,4-dihydro-1H-isoquinolin-6-yl}-N-(4-hydroxyphenyl)-1,2-dimethylpyrrole-3-carboxamide] | 0.02 | 0.1 | 4.7 | 0.07 | 1.9 | 105.6 | 0.0166 | 4.86 | 0.0806 | > 5000 | – | – | – |
